According to patent US11629171B2, “Beta-hairpin peptidomimetics” (POLYPHOR AG, priority 2017, dated 2023):
Converted amounts (≈) assume the structure as drawn. Where a SMILES comes first, the peptide text is derived from it. Bridges are numbered along the chain shown (N, C = ends). Roman numbers before positions name the chains, in order. [ ]: non-standard residue; d: D form. The star is where a group is joined. Thr(ol) = C[C@@H](O)[C@H](N)CO; Pen = CC(C)(S)[C@H](N)C(=O)O; Tle = CC(C)(C)[C@H](N)C(=O)O; Hiv = CC(C)[C@H](O)C(=O)O; dDab = NCC[C@@H](N)C(=O)O; hSer = N[C@@H](CCO)C(=O)O; Isobutyryl = CC(C)C(=O)*; Orn = NCCC[C@H](N)C(=O)O; Dab = NCC[C@H](N)C(=O)O; Abu = CC[C@H](N)C(=O)O; Dap = NC[C@H](N)C(=O)O

Tests used:
Assay type in all cases: cell-based
[1] = test system: Escherichia coli 926415; conditions: 926415
Procedure, shortened: (§1)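 Two-fold peptide dilutions in polysorbate 80-containing (0.002% final) cation-adjusted Mueller-Hinton II broth were inoculated with about 10^6 CFU/mL. The MIC was taken as the lowest concentration, in μg/mL, preventing visible growth at 18-20 hours and 35° C.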

[2] = test system: Escherichia coli ATCC 25922; conditions: ATCC 25922
Procedure, shortened: as §1

[3] = test system: Pseudomonas aeruginosa ATCC 27853; conditions: ATCC 27853
Procedure, shortened: as §1

[4] = test system: Enterobacter cloacae 848840; conditions: 848840
Procedure, shortened: as §1

[5] = test system: Klebsiella pneumoniae SSI #3010; conditions: SSI #3010
Procedure, shortened: as §1

[6] = test system: Acinetobacter baumannii DSM 30008; conditions: DSM 30008
Procedure, shortened: as §1

[7] = test system: Klebsiella pneumoniae 968733; conditions: 968733
Procedure, shortened: as §1

[8] = test system: Acinetobacter baumannii 872842; conditions: 872842
Procedure, shortened: as §1

[9] = test system: human red blood cells (hRBC); assay: Hemolysis; conditions: red cells of human, 1 h, 200
Procedure, shortened: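 Hemoglobin release from PBS-washed hRBC at 20% (v/v), incubated 1 h at 37° C with peptides at 200 μg/mL, is measured at 540 nm. Values are blank corrected and given as a fraction of Triton X-100 lysis × 100%.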

| SMILES | MIC [1] | Escherichia coli ATCC 25922 MIC [2] | Pseudomonas aeruginosa ATCC 27853 MIC [3] | MIC [4] | Klebsiella pneumoniae SSI #3010 MIC [5] | Acinetobacter baumannii DSM 30008 MIC [6] | MIC [7] | MIC [8] | Hemolysis at 200 μg/mL [9] | MIC [2] | MIC [3] | MIC [5] | MIC [6] |
| --- | --- | --- | --- | --- | --- | --- | --- | --- | --- | --- | --- | --- | --- |
| CC(=O)N[C@H](C(=O)N[C@H]1CSSC[C@@H](C(=O)N[C@@H](CO)C(N)=O)NC(=O)[C@H](C(C)C)NC(=O)[C@H](CO)NC(=O)[C@H](Cc2c[nH]c3ccccc23)NC(=O)[C@@H](CCC(=O)N[C@@H](CCN)C(=O)N[C@H](C(=O)N[C@@H](CN)C(=O)N[C@H]2CCNC(=O)[C@H]([C@@H](C)O)NC(=O)[C@H](CCN)NC(=O)[C@H](CCN)NC(=O)[C@H](CC(C)C)NC(=O)[C@@H](CC(C)C)NC(=O)[C@H](CCN)NC2=O)[C@@H](C)O)NC(=O)[C@@H](CCN)NC(=O)[C@H](CCCN)NC(=O)[C@H](CO)NC(=O)[C@H](Cc2ccc(O)cc2)NC1=O)C(C)C [Ex. 366] (I: Ac-VCYS[Orn][dDab][dE]WSVCS-NH2 / II: [Dab]T[Dap][Dab][Dab][dL]L[Dab][Dab]T; disulfide I:2-I:11; amide I:7-II:N; lactam II:4-II:C) | 0.5 µg/mL (≈ 0.207 µM) | 0.125 µg/mL | 0.25 µg/mL | 8 µg/mL (≈ 3.32 µM) | 0.25 µg/mL | 0.25 µg/mL | 2 µg/mL (≈ 0.829 µM) | 0.5 µg/mL (≈ 0.207 µM) | 4% |  |  |  |  |
| CC(C)C[C@@H]1NC(=O)[C@@H](CC(C)C)NC(=O)[C@H](CCN)NC(=O)[C@@H](NC(=O)[C@H](CCN)NC(=O)[C@@H](NC(=O)[C@H](CCN)NC(=O)CC[C@@H]2NC(=O)[C@H](CCN)NC(=O)[C@H](Cc3ccc(O)cc3)NC(=O)[C@@H](NC(=O)[C@@H](O)C(C)C)C(C)(C)SSC[C@@H](C(=O)N[C@H](CO)[C@@H](C)O)NC(=O)[C@H](C(C)(C)C)NC(=O)[C@H](CO)NC(=O)[C@H](Cc3c[nH]c4ccccc34)NC(=O)[C@H](CCO)NC(=O)[C@@H](CCN)NC2=O)[C@@H](C)O)CCNC(=O)[C@H]([C@@H](C)O)NC(=O)[C@H](CCN)NC(=O)[C@H](CCN)NC1=O [Ex. 84] (I: H-[Hiv][Pen]Y[Dab]E[dDab][hSer]WS[Tle]C[Thr(ol)] / II: [Dab]T[Dab][Dab][Dab][dL]L[Dab][Dab]T; disulfide I:2-I:11; amide I:5-II:N; lactam II:4-II:C) | 0.125 µg/mL (≈ 0.0515 µM) |  |  | 0.25 µg/mL (≈ 0.103 µM) |  |  | 0.125 µg/mL (≈ 0.0515 µM) | 0.125 µg/mL (≈ 0.0515 µM) | <1% | 0.0625 µg/mL (≈ 0.0257 µM) | 0.25 µg/mL (≈ 0.103 µM) | 0.125 µg/mL (≈ 0.0515 µM) | 0.125 µg/mL (≈ 0.0515 µM) |
| CC[C@@H]1NC(=O)[C@@H](CC(C)C)NC(=O)[C@H](CCN)NC(=O)[C@@H](NC(=O)[C@H](CN)NC(=O)[C@@H](NC(=O)[C@H](CCN)NC(=O)CC[C@@H]2NC(=O)[C@H](CO)NC(=O)[C@H](Cc3ccc(O)cc3)NC(=O)[C@@H](NC(=O)[C@@H](NC(C)=O)C(C)C)CSSC[C@@H](C(=O)N[C@H](C(N)=O)[C@@H](C)O)NC(=O)[C@H](C(C)(C)C)NC(=O)[C@H](CO)NC(=O)[C@H](Cc3c[nH]c4ccccc34)NC(=O)[C@H](CCN)NC(=O)[C@@H](CCN)NC2=O)[C@@H](C)O)CCNC(=O)[C@H]([C@@H](C)O)NC(=O)[C@H](CCN)NC(=O)[C@H](CCN)NC1=O [Ex. 256] (I: Ac-VCYSE[dDab][Dab]WS[Tle]CT-NH2 / II: [Dab]T[Dap][Dab][Dab][dL][Abu][Dab][Dab]T; disulfide I:2-I:11; amide I:5-II:N; lactam II:4-II:C) | 0.0625 µg/mL (≈ 0.0261 µM) |  |  | 0.0625 µg/mL (≈ 0.0261 µM) |  |  | 0.0625 µg/mL (≈ 0.0261 µM) | 0.03125 µg/mL (≈ 0.013 µM) | 1% | 0.03125 µg/mL (≈ 0.013 µM) | 0.0625 µg/mL (≈ 0.0261 µM) | 0.03125 µg/mL (≈ 0.013 µM) | 0.03125 µg/mL (≈ 0.013 µM) |
| CC(=O)N[C@@H](CCN)C(=O)N[C@H](C(=O)N[C@H](C(=O)N[C@@H](Cc1ccc(O)cc1)C(=O)N[C@H]1CSSC[C@@H](C(=O)N[C@H](C(=O)N[C@@H](C)C(=O)N[C@@H](CO)C(N)=O)C(C)(C)C)NC(=O)[C@H](Cc2c[nH]c3ccccc23)NC(=O)[C@H](CO)NC(=O)[C@@H](CCN)NC(=O)[C@H](CCC(=O)N[C@@H](CCN)C(=O)N[C@H](C(=O)N[C@@H](CN)C(=O)N[C@H]2CCNC(=O)[C@H]([C@@H](C)O)NC(=O)[C@H](CCN)NC(=O)[C@H](CCN)NC(=O)[C@H](CC(C)C)NC(=O)[C@@H](CC(C)C)NC(=O)[C@H](CCN)NC2=O)[C@@H](C)O)NC1=O)[C@@H](C)O)C(C)C [Ex. 237] (I: Ac-[Dab]VTYCE[dDab]SWC[Tle]AS-NH2 / II: [Dab]T[Dap][Dab][Dab][dL]L[Dab][Dab]T; disulfide I:5-I:10; amide I:6-II:N; lactam II:4-II:C) | 0.25 µg/mL (≈ 0.1 µM) |  |  | 0.125 µg/mL (≈ 0.05 µM) |  |  | 0.5 µg/mL (≈ 0.2 µM) | 0.125 µg/mL (≈ 0.05 µM) | <1% | 0.0625 µg/mL (≈ 0.025 µM) | 0.125 µg/mL (≈ 0.05 µM) | 0.0625 µg/mL (≈ 0.025 µM) | 0.03125 µg/mL (≈ 0.0125 µM) |
| CC(C)C[C@@H]1NC(=O)[C@@H](CC(C)C)NC(=O)[C@H](CCN)NC(=O)[C@@H](NC(=O)[C@H](CCN)NC(=O)[C@@H](NC(=O)[C@H](CCN)NC(=O)CC[C@@H]2NC(=O)[C@H](CCN)NC(=O)[C@H](Cc3ccc(O)cc3)NC(=O)[C@@H](NC(=O)C(C)C)CSSC[C@@H](C(=O)N[C@H](CO)[C@@H](C)O)NC(=O)[C@H](C(C)(C)C)NC(=O)[C@H](CO)NC(=O)[C@H](Cc3c[nH]c4ccccc34)NC(=O)[C@H](CCO)NC(=O)[C@@H](CCN)NC2=O)[C@@H](C)O)CCNC(=O)[C@H]([C@@H](C)O)NC(=O)[C@H](CCN)NC(=O)[C@H](CCN)NC1=O [Example 3] (I: Isobutyryl-CY[Dab]E[dDab][hSer]WS[Tle]C[Thr(ol)] / II: [Dab]T[Dab][Dab][Dab][dL]L[Dab][Dab]T; disulfide I:1-I:10; amide I:4-II:N; lactam II:4-II:C) | 0.25 µg/mL (≈ 0.105 µM) |  |  | 2 µg/mL (≈ 0.844 µM) |  |  | 0.25 µg/mL (≈ 0.105 µM) | 0.125 µg/mL (≈ 0.0527 µM) | <1% | 0.125 µg/mL (≈ 0.0527 µM) | 0.125 µg/mL (≈ 0.0527 µM) | 0.125 µg/mL (≈ 0.0527 µM) | 0.0625 µg/mL (≈ 0.0264 µM) |
| CC(=O)N[C@H](C(=O)N[C@H]1CSSC[C@@H](C(=O)N[C@H](CO)[C@@H](C)O)NC(=O)[C@H](C(C)(C)C)NC(=O)[C@H](CO)NC(=O)[C@H](Cc2c[nH]c3ccccc23)NC(=O)[C@H](CO)NC(=O)[C@@H](CCN)NC(=O)[C@H](CCC(=O)N[C@@H](CCN)C(=O)N[C@H](C(=O)N[C@@H](CN)C(=O)N[C@H]2CCNC(=O)[C@H]([C@@H](C)O)NC(=O)[C@H](CCN)NC(=O)[C@H](CCN)NC(=O)[C@H](CC(C)C)NC(=O)[C@@H](CC(C)C)NC(=O)[C@H](CCN)NC2=O)[C@@H](C)O)NC(=O)[C@H](CN)NC(=O)[C@H](Cc2ccc(O)cc2)NC1=O)C(C)C [Ex. 123] (I: Ac-VCY[Dap]E[dDab]SWS[Tle]C[Thr(ol)] / II: [Dab]T[Dap][Dab][Dab][dL]L[Dab][Dab]T; disulfide I:2-I:11; amide I:5-II:N; lactam II:4-II:C) | 0.03125 µg/mL (≈ 0.013 µM) |  |  | 0.0625 µg/mL (≈ 0.026 µM) |  |  | 0.0625 µg/mL (≈ 0.026 µM) | 0.03125 µg/mL (≈ 0.013 µM) | <1% | 0.01562 µg/mL (≈ 0.00651 µM) | 0.0625 µg/mL (≈ 0.026 µM) | 0.0625 µg/mL (≈ 0.026 µM) | 0.01562 µg/mL (≈ 0.00651 µM) |
| CC(=O)N[C@H](C(=O)N[C@H]1CCNC(=O)C[C@@H](C(=O)N[C@@H](CO)C(N)=O)NC(=O)[C@H](C(C)C)NC(=O)[C@H](CO)NC(=O)[C@H](Cc2c[nH]c3ccccc23)NC(=O)[C@H](CO)NC(=O)[C@@H](CCN)NC(=O)[C@H](CCC(=O)N[C@@H](CCN)C(=O)N[C@H](C(=O)N[C@@H](CN)C(=O)N[C@H]2CCNC(=O)[C@H]([C@@H](C)O)NC(=O)[C@H](CCN)NC(=O)[C@H](CCN)NC(=O)[C@H](CC(C)C)NC(=O)[C@@H](CC(C)C)NC(=O)[C@H](CCN)NC2=O)[C@@H](C)O)NC(=O)[C@H](CN)NC(=O)[C@H](Cc2ccc(O)cc2)NC1=O)C(C)C [Ex. 149] (I: Ac-V[Dab]Y[Dap]E[dDab]SWSVDS-NH2 / II: [Dab]T[Dap][Dab][Dab][dL]L[Dab][Dab]T; lactam I:2-I:11, II:4-II:C; amide I:5-II:N) | 0.25 µg/mL (≈ 0.105 µM) |  |  | 0.125 µg/mL (≈ 0.0526 µM) |  |  | 0.5 µg/mL (≈ 0.21 µM) | 0.125 µg/mL (≈ 0.0526 µM) | <1% | 0.0625 µg/mL (≈ 0.0263 µM) | 0.125 µg/mL (≈ 0.0526 µM) | 0.125 µg/mL (≈ 0.0526 µM) | 0.0625 µg/mL (≈ 0.0263 µM) |
